Structures are written as SMILES. Read-outs that look alike come from different tables or passages of the source.

The subject of one data set is thymidine phosphorylase. Conditions: reported to date; cited from earlier work.
Data set [1] has as its target T1, thymidine phosphorylase obtained from human placenta (Homo sapiens, UniProt P19971).
T1 construct: thymidine phosphorylase obtained from human placenta in a highly purified form; from tissue; host or cells: human placenta
T1 sequence (P19971 11-482): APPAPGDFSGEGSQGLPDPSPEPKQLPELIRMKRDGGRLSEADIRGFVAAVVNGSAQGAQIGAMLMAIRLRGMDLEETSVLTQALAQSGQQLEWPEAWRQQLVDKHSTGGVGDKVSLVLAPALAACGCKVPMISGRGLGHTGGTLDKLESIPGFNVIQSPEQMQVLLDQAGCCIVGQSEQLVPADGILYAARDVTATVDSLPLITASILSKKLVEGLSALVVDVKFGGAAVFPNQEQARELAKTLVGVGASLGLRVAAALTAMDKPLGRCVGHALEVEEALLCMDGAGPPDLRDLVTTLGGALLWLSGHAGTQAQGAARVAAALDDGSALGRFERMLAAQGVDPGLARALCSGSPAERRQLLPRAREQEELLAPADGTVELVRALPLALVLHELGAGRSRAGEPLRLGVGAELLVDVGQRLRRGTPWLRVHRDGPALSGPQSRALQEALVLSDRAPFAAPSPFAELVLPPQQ
Put plainly: Test 1: thymidine phosphorylase inhibiting effects (formation of [6-3H]thymine from [6-3H]thymidine). The format is biochemical. As to conditions: 37° C., 5 minutes, pH 7.4, 3 mM thymidine solution.

Data set [2] relates to Nude-mouse-transplanted human tumor. The experiment in a line: Test 4: antitumor effects, therapeutic index of F3 dThd with Compound 2. The format is in vivo. As to conditions: oral, once a day for 14 days. The text has this: Test 4 (Antitumor Effects)
For data set [3] the following is noted: antitumor; cited from earlier work.
The subject of data set [4] is Nude-mouse-transplanted human tumor.
Data set [5] shares this test system. Put plainly: Test 2: antitumor effects, nude-mouse-transplanted human tumor. The format is in vivo. As to conditions: oral, once a day for 14 days.
The next data set relates to herpetic keratitis. Conditions: used as an eye drop for herpetic keratitis; cited from earlier work.
The subject of the next data set is S-180 cells. Conditions: oral, once a day for 7 days.

As for `N#Cc1ccc(O)nc1O` [3-Cyano-2,6-dihydroxypyridine], the “inhibitory activities against thymidine phosphorylase” value in the data set on thymidine phosphorylase is given as “not sufficient”.
`Cc1cn(COCCO)c(=O)[nH]c1=O` [Acyclothymidine] registered an IC50 in data set [1] of more than 1000 µM. The “inhibitory activities against thymidine phosphorylase” value in the data set on thymidine phosphorylase is reported as “not sufficient”.
`O=c1[nH]c(=O)n([C@H]2C[C@H](O)[C@@H](CO)O2)cc1C(F)(F)F` [F3 dThd, 5-Trifluoromethyl-2'-deoxyuridine]: the BWC-10 was 103 mg/kg in data set [2] (body weight change, in terms of F3 dThd) and 73.8 mg/kg in data set [4] (mouse, in vivo, po, 20160 min). The “Therapeutic index BWC-10 /ED50” value in data set [2] stood at 1.7; in data set [4] (mouse, in vivo, po) it was 2.7. The ED50 in data set [2] (12.5-100 mg/kg in terms of F3 dThd) was 60.0 mg/kg; in data set [4] (oral, once a day for 14 days, 12.5-100 mg/kg in terms of F3 dThd), 26.9 mg/kg. The in vitro activities entry in data set [3] is on record as “strong in vitro activities”. Besides, the entries for the “Tumor size reduction rate” value in data set [5] (50 mg/kg in terms of F3 dThd) and in data set [5] (100 mg/kg in terms of F3 dThd) were 27% and 50%, respectively. In the data set with herpetic keratitis, the antiviral activities result is on record as “has antiviral activities”.
On to `O=c1[nH]c(=O)n([C@H]2C[C@H](O)[C@@H](CO)O2)cc1F` [FdUrd, 5-Fluoro-2'-deoxyuridine], for which the in vitro activities entry in data set [3] is on record as “strong in vitro activities”. The “Tumor size reduction rate” value in the data set on S-180 cells (5 mg/kg in terms of FdUrd) was determined as 10.5%; with S-180 cells (10 mg/kg in terms of FdUrd) it was 24.4%.

A word on the IC50: it is the point on the concentration scale where inhibition reaches its midpoint. A higher IC50 goes with lower potency. By ED50 is commonly meant the midpoint of the dose-response relation.
